Key:
[1] = target: T1, cAMP and cAMP-inhibited cGMP 3',5'-cyclic phosphodiesterase 10A (Mus musculus, UniProt Q8CA95); experiment: Inhibition of mouse recombinant GST-tagged PDE10A using [3H]-cAMP as substrate after 30 mins by scintillation proximity assay
T1 sequence (Q8CA95 whole entry): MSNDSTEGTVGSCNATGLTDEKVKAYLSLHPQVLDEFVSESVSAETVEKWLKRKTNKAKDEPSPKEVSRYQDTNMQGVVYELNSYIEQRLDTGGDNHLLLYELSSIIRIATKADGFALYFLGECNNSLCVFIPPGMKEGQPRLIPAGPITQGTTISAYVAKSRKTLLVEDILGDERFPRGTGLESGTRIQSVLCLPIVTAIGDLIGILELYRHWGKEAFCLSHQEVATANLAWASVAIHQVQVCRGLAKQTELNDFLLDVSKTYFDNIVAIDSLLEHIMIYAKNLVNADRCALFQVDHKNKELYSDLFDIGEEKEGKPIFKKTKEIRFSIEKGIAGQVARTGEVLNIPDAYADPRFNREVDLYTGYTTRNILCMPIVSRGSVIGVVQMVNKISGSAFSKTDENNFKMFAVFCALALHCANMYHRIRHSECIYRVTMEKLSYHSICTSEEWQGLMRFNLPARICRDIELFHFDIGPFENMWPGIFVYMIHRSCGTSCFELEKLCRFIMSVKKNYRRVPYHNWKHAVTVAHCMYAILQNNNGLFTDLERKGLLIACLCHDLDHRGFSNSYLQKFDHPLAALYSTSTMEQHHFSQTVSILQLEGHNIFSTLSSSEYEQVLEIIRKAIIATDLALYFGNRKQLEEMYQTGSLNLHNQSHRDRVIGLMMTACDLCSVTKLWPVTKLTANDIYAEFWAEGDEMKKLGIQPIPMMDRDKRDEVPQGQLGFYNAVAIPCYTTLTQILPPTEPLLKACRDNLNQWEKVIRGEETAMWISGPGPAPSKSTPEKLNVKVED

Rattus norvegicus = experiment: Antipsychotic activity in po dosed Sprague-Dawley rat psychosis model assessed as reversal of MK-801-induced locomotion administered 2 hrs prior to MK-801 challenge measured every 5 mins for 1 hr starting 15 mins post MK-801 injection relative to vehicle-treated control; format: functional

Structure (SMILES): Cn1cc(-c2ccc(Oc3nccnc3-c3ccncc3)cc2)c2ncccc21
- IC50 [1]: 11.7 nM
- ED50 (Rattus norvegicus): 1.63 mg/kg

— ChEMBL document CHEMBL3352660, “Design, synthesis and pharmacological evaluation of novel polycyclic heteroarene ethers as PDE10A inhibitors: part II” (Bioorg Med Chem Lett, 2014)
